Measurements taken from publication PMC10272112 (Nature Communications, 2023).
Where “and” joins values, the source holds several entries; their conditions need not be identical. Identical values can stand only once.

Legend:
KDM1A = assay: Chemoproteomic competition pulldown assay (co-competed CoREST partner); assay type: binding
Protocol: (§1) To identify proteins directly bound by lipoic acid, we employed a chemoproteomic competition assay. Briefly, (R/S)-LA was immobilized on sepharose beads via an amidation reaction to form an affinity matrix (abbreviated as iL; Fig. 1a). This affinity matrix can be incubated with cell lysate to pull down potential LA or LM target proteins and identify these targets via bottom-up proteomics. In a competition assay, free LA or LM were incubated with lysate at different concentrations before pulling down and quantifying target proteins. […] (Fig. 1b, see “Methods” for details). […] The lysate buffer used in this assay contains 1 mM DTT to mimic the intracellular reductive milieu and to reduce lipoic acid and LM. […] Additional competition assays performed in lung adenocarcinoma cell A549 lysate also identified HDAC1, HDAC2, and HDAC6 as targets (Supplementary Fig. 1b). Amongst the three cell lines tested, HDACs were the only confidently identified targets across the 1500–3000 proteins quantified in these assays. […] We validated the results by analogous pulldown competition assays using two other affinity matrices prepared via the immobilization of either the HDAC inhibitor Quisinostat (iQ) and an analog of the class IIa HDAC inhibitor Bürli’s 31[14] (iC)[12]. We have previously shown that these affinity matrices specifically bind to the active sites of HDACs and have used them for HDACi selectivity profiling. Indeed, binding of (R/S)-LA and (R/S)-LM to HDAC1, HDAC2, HDAC3, HDAC6, and, to a lesser extent, HDAC8 was confirmed in these assays (Supplementary Fig. 1c, d). No binding to class IIa HDACs or the recently discovered common HDAC inhibitor off-target MBLAC2 was observed (Supplementary Fig. 1e)[12]. […] This observation might reflect electrostatic repulsion between the HDAC10 active site gate-keeper glutamic acid residues[15],[16] and the terminal carboxylic acid of LA.
(§2) To assess the degree of protein depletion from lysates by the affinity matrix, a second pulldown (PDPD) with fresh beads was performed using the unbound protein fraction from the vehicle control flow through. The beads were washed (1 × 1 mL of lysis buffer without inhibitors and only 0.4% Igepal, 2 × 2 mL of lysis buffer without inhibitors and only 0.2% Igepal), and captured proteins were denatured with 8 M urea buffer, alkylated with 55 mM chloroacetamide and digested with Trypsin according to standard procedures. The resulting peptides were desalted on a C18 filter plate (Sep-Pak® tC18 µElution Plate, Waters), vacuum dried, and stored at −20 °C until LC–MSMS measurement.
(§3) For the competition assays, relative binding was calculated based on the protein intensity ratio to the DMSO control for every single inhibitor concentration. EC50 values were derived from a four-parameter log-logistic regression with variable slope (constrain: bottom > 0). The obtained EC50 values were multiplied with a protein-dependent correction factor (cf), resulting in the apparent Kd value (Kd^app). The correction factor is determined by calculating the ratio of the protein intensity of two consecutive pulldowns of the vehicle control sample[13]. Targets of the inhibitors were annotated manually according to published procedures[12],[46],[47]. […] Additionally, the number of unique peptides and MSMS counts per condition were taken into account. Positive target binding across several independent experiments performed with different cell lysates further substantiated our confidence for a true positive drug-target binding event.

GSE1 = assay: as above; assay type: binding
Protocol: as §1, §2, §3

HDAC3/NcoR2 complex = target: T1, HDAC3/NcoR2 complex (Homo sapiens, UniProt O15379); assay: HDAC-Glo assay; assay type: biochemical; details: for HDCA3 relative activity: sheet S2b
T1 construct: purchased BPS Bioscience 50003
Protocol: To validate the inhibition of HDACs by LA and LM and elaborate on the structure-activity relationship (SAR) of enantiomers as well as oxidized versus reduced forms of the molecules, we performed enzyme activity assays for recombinant HDAC1,2,3,6,8 as well as FRET-based binding assay for recombinant HDAC10.
The experiments were performed according to ref. [48]. […] Drug dosing was performed with a D300e Digital Dispenser (Tecan). HDACs (7 ng/mL for HDAC1, 25 ng/mL for HDAC2, 200 ng/mL for HDAC3/Ncor2 complex, 100 ng/mL for HDAC6, 200 ng/mL for HDAC8) and inhibitors were incubated together at room temperature (RT) for 30 min. After the addition of the HDAC-Glo™ I/II reagent, plates were shaken (800 rpm orbital shaker, 30 s), centrifuged (300 g, 1 min), and incubated at RT for 30 min. Luminescence was detected with a CLARIOstar (BMG Labtech) plate reader.

[1] = iL, A549 lysate, log10 M -4.52288
[2] = iL, A549 lysate, log10 M -5.52288
[3] = iL, A549 lysate, log10 M -6.52288
[4] = iL, A549 lysate, log10 M -7.52288
[5] = iL, A549 lysate, log10 M -8.52288
[6] = iL, SW620 lysate, log10 M -3.52288
[7] = iL, SW620 lysate, log10 M -4.52288
[8] = iL, SW620 lysate, log10 M -5.52288
[9] = iL, SW620 lysate, log10 M -6.52288
[10] = iQ, SW620 lysate, log10 M -3.52288
[11] = iQ, SW620 lysate, log10 M -4.52288
[12] = iQ, SW620 lysate, log10 M -5.52288
[13] = iQ, SW620 lysate, log10 M -6.52288

T1 sequence (O15379 whole entry): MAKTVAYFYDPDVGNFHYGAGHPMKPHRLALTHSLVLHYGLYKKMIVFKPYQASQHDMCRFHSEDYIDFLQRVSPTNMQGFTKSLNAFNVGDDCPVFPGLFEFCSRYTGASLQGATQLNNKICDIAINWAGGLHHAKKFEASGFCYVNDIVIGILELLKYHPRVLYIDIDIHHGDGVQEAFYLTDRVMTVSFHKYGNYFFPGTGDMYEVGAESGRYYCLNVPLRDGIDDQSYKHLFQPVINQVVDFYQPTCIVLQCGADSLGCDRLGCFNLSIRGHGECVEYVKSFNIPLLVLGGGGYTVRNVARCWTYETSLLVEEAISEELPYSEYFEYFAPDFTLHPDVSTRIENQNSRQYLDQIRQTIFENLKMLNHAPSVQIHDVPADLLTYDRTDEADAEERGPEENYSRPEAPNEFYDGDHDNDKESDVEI
T1 sequence (Q9Y618 395-489 partner limits assumed): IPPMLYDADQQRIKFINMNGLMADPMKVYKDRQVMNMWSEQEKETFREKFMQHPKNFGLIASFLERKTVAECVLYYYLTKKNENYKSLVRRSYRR

Structure (SMILES): O=C(O)CCCCC1CCSS1 (racemic) [(R/S)-LA, (R/S)-lipoic acid]
- relative binding vs DMSO (KDM1A; iL, A549 lysate, log10 M -4): 0.08234
- relative binding vs DMSO (KDM1A; [1]): 0.1175
- relative binding vs DMSO (KDM1A; iL, A549 lysate, log10 M -5): 0.1963
- relative binding vs DMSO (KDM1A; [2]): 0.3595
- relative binding vs DMSO (KDM1A; iL, A549 lysate, log10 M -6): 0.6514
- relative binding vs DMSO (KDM1A; [3]): 1.056
- relative binding vs DMSO (KDM1A; [4]): 0.9439
- relative binding vs DMSO (KDM1A; iL, A549 lysate, log10 M -8): 1.171
- relative binding vs DMSO (KDM1A; [5]): 1.264
- relative binding vs DMSO (KDM1A; [6]): 0
- relative binding vs DMSO (KDM1A; iL, SW620 lysate, log10 M -4): 0
- relative binding vs DMSO (KDM1A; [7]): 0
- relative binding vs DMSO (KDM1A; iL, SW620 lysate, log10 M -5): 0.08571
- relative binding vs DMSO (KDM1A; [8]): 0.9092
- relative binding vs DMSO (KDM1A; iL, SW620 lysate, log10 M -6): 1.31
- relative binding vs DMSO (KDM1A; [9]): 1.608
- relative binding vs DMSO (KDM1A; iL, SW620 lysate, log10 M -7): 1.68
- relative binding vs DMSO (KDM1A; [10]): 0.1418
- relative binding vs DMSO (KDM1A; iQ, SW620 lysate, log10 M -4): 0.1346
- relative binding vs DMSO (KDM1A; [11]): 0.3513
- relative binding vs DMSO (KDM1A; iQ, SW620 lysate, log10 M -5): 0.5517
- relative binding vs DMSO (KDM1A; [12]): 0.6829
- relative binding vs DMSO (KDM1A; iQ, SW620 lysate, log10 M -6): 0.6182
- relative binding vs DMSO (KDM1A; [13]): 0.6303
- relative binding vs DMSO (KDM1A; iQ, SW620 lysate, log10 M -7): 0.7048
- relative binding vs DMSO (GSE1; iL, A549 lysate, log10 M -4): 0.002926
- relative binding vs DMSO (GSE1; [1]): 0.03688
- relative binding vs DMSO (GSE1; iL, A549 lysate, log10 M -5): 0.08918
- relative binding vs DMSO (GSE1; [2]): 0.4136
- relative binding vs DMSO (GSE1; iL, A549 lysate, log10 M -6): 0.8054
- relative binding vs DMSO (GSE1; [3]): 1.293
- relative binding vs DMSO (GSE1; [4]): 1.282
- relative binding vs DMSO (GSE1; iL, A549 lysate, log10 M -8): 1.353
- relative binding vs DMSO (GSE1; [5]): 1.278
- relative binding vs DMSO (GSE1; [6]): 0
- relative binding vs DMSO (GSE1; iL, SW620 lysate, log10 M -4): 0
- relative binding vs DMSO (GSE1; [7]): 0
- relative binding vs DMSO (GSE1; iL, SW620 lysate, log10 M -5): 0.09089
- relative binding vs DMSO (GSE1; [8]): 0.3606
- relative binding vs DMSO (GSE1; iL, SW620 lysate, log10 M -6): 1.287
- relative binding vs DMSO (GSE1; [9]): 0.7924
- relative binding vs DMSO (GSE1; iL, SW620 lysate, log10 M -7): 1.217
- relative binding vs DMSO (GSE1; [10]): 0.1048
- relative binding vs DMSO (GSE1; iQ, SW620 lysate, log10 M -4): 0.1152
- relative binding vs DMSO (GSE1; [11]): 0.3197
- relative binding vs DMSO (GSE1; iQ, SW620 lysate, log10 M -5): 0.4493
- relative binding vs DMSO (GSE1; [12]): 0.5952
- relative binding vs DMSO (GSE1; iQ, SW620 lysate, log10 M -6): 0.7905
- relative binding vs DMSO (GSE1; [13]): 0.8177
- relative binding vs DMSO (GSE1; iQ, SW620 lysate, log10 M -7): 0.7924
- HDAC enzymatic activity (normalized luminescence) (HDAC3/NcoR2 complex; 0.5 M TCEP, log10 M -3.30103, 3 technical replicates): 7.256 and 7.282 and 7.339
- HDAC enzymatic activity (normalized luminescence) (HDAC3/NcoR2 complex; 0.5 M TCEP, log10 M -3.82945, 3 technical replicates): 17.0785 and 16.9479 and 17.22
- HDAC enzymatic activity (normalized luminescence) (HDAC3/NcoR2 complex; 0.5 M TCEP, log10 M -4.35788, 3 technical replicates): 49.3596 and 49.0858 and 50.0362
- HDAC enzymatic activity (normalized luminescence) (HDAC3/NcoR2 complex; 0.5 M TCEP, log10 M -4.88629, 3 technical replicates): 95.5948 and 97.1564 and 98.2162
- HDAC enzymatic activity (normalized luminescence) (HDAC3/NcoR2 complex; 0.5 M TCEP, log10 M -5.41477, 3 technical replicates): 101.96 and 103.73 and 105.005
- HDAC enzymatic activity (normalized luminescence) (HDAC3/NcoR2 complex; 0.5 M TCEP, log10 M -5.94309, 3 technical replicates): 91.2378 and 92.4271 and 93.0815
- HDAC enzymatic activity (normalized luminescence) (HDAC3/NcoR2 complex; 0.5 M TCEP, log10 M -6.47756, 3 technical replicates): 89.2879 and 93.1305 and 94.7241
- HDAC enzymatic activity (normalized luminescence) (HDAC3/NcoR2 complex; 0.5 M TCEP, log10 M -6.87615, 3 technical replicates): 90.3991 and 92.4306 and 92.5457
- HDAC enzymatic activity (normalized luminescence) (HDAC3/NcoR2 complex; no TCEP, log10 M -3.30103, 3 technical replicates): 64.3889 and 65.753 and 66.6157
- HDAC enzymatic activity (normalized luminescence) (HDAC3/NcoR2 complex; no TCEP, log10 M -3.82945, 3 technical replicates): 67.3361 and 68.514 and 68.6262
- HDAC enzymatic activity (normalized luminescence) (HDAC3/NcoR2 complex; no TCEP, log10 M -4.35788, 3 technical replicates): 79.5043 and 81.2871 and 81.6059
- HDAC enzymatic activity (normalized luminescence) (HDAC3/NcoR2 complex; no TCEP, log10 M -4.88629, 3 technical replicates): 87.8136 and 89.4197 and 90.6707
- HDAC enzymatic activity (normalized luminescence) (HDAC3/NcoR2 complex; no TCEP, log10 M -5.41477, 3 technical replicates): 88.1589 and 90.4647 and 92.122
- HDAC enzymatic activity (normalized luminescence) (HDAC3/NcoR2 complex; no TCEP, log10 M -5.94309, 3 technical replicates): 88.1501 and 88.386 and 90.7058
- HDAC enzymatic activity (normalized luminescence) (HDAC3/NcoR2 complex; no TCEP, log10 M -6.47756, 3 technical replicates): 88.6188 and 88.5508 and 90.3108
- HDAC enzymatic activity (normalized luminescence) (HDAC3/NcoR2 complex; no TCEP, log10 M -6.87615, 3 technical replicates): 97.6646 and 98.0479 and 97.5948
- EC50 (HDAC3/NcoR2 complex; read-out: log EC50 from dose-dependent HDAC inhibition curves (converted)): 41.7 µM
- HDCA3 relative activity (HDAC3/NcoR2 complex; log conc -3.30103): 4.168 and 4.13 and 4.176
- HDCA3 relative activity (HDAC3/NcoR2 complex; log conc -3.82945): 8.909 and 8.94 and 8.919
- HDCA3 relative activity (HDAC3/NcoR2 complex; log conc -4.35788): 25.3559 and 24.0859 and 24.4605
- HDCA3 relative activity (HDAC3/NcoR2 complex; log conc -4.88629): 55.6369 and 56.3521 and 62.4157
- HDCA3 relative activity (HDAC3/NcoR2 complex; log conc -5.41477): 100.947 and 102.17 and 103.057
- HDCA3 relative activity (HDAC3/NcoR2 complex; log conc -5.94309): 105.476 and 106.045 and 106.401
- HDCA3 relative activity (HDAC3/NcoR2 complex; log conc -6.47756): 89.5862 and 90.873 and 93.4553
- HDCA3 relative activity (HDAC3/NcoR2 complex; log conc -6.87615): 104.127 and 108.406 and 102.786
